The text below walks through data of patent US11851449B2, “Heterocyclic amide compounds having an RORvt inhibitory action” (TAKEDA PHARMACEUTICAL COMPANY LIMITED, priority 2013, dated 2023).

Where two headings read alike, the source gives them in different places.

The target of test [1] is T1, RORγt (Homo sapiens, UniProt P51449).
T1 sequence (P51449 1-497 isoform P51449-2): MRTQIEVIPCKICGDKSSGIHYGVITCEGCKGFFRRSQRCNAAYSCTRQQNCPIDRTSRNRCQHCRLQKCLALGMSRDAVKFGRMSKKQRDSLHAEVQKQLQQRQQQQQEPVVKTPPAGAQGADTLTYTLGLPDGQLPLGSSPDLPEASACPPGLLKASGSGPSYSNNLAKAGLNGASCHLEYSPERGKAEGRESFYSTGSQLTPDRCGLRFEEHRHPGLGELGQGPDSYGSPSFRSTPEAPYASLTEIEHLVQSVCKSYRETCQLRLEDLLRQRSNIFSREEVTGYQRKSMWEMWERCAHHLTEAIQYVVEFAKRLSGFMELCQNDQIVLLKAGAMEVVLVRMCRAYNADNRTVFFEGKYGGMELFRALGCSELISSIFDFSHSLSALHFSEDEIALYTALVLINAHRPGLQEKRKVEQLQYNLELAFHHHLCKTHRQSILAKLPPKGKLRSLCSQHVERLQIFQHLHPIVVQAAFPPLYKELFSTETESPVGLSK
The test can be described thus: RORγt binding test (TR-FRET, fluorescent-labeled cholesterol). The following applies: read-out: binding inhibitory rate (%) of fluorescent-labeled cholesterol to RORγt at test compound 1 μM. The method in brief:
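His-tagged RORγt and BODIPY-cholesterol were incubated with compound for 20 min at room temperature in Tris-HCl pH 7.5, 100 mM NaCl, 1 mM DTT and 0.1% BSA. Terbium anti-His antibody was then added for a further 20 min.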
(In general: TR-FRET usually uses a lanthanide donor and a delayed reading to cut background.)

Test [2] deals with T1, RORγt. The test can be described thus: Cofactor recruitment test (Alpha Screen, biotinylated SRC-1 peptide). The following applies: read-out: signal value inhibitory rate (%) at test compound 1 μM. Type of test: biochemical. As for the experimental part:
Cofactor Recruitment Test
Cofactor recruitment test was performed by Alpha Screen (Histidine Detection Kit, PerkinElmer) method. First, a test compound was diluted with an assay buffer (50 mM Tris-HCl (pH 7.5), 50 mM KCl, 1 mM DTT, 0.1% BSA) and added to a 384 well plate by 5 μL. […] The mixture was stood in a dark place for 1 hr, and the signal value was measured by Envision (PerkinElmer).

The target in test [3] is T1, RORγt. The test can be described thus: Jurkat reporter test (human IL-17 ROR response element luciferase reporter). It counts as cell-based. Conditions: read-out: luminescence level inhibitory rate (%) at test compound 3 μM. The method in brief: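 Jurkat cells were electroporated (1350 V, 10 ms, 3 pulses) with reporter constructs, then cultured overnight with compound in RPMI containing 10% lipid-reduced FCS, 10 mM HEPES pH 7.5 and 5 μM lovastatin. Luciferase was quantified by Bright-Glo luminescence after 10 min at room temperature.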

The mark [4] stands for this setting: test compound 3 μM, Jurkat cells.

In the case of `COCc1ccc([C@@H](NC(=O)Cn2ccc(=O)cc2)C(=O)Nc2ccc([Si](C)(C)C)c(F)c2)cc1` [Example 78, (2R)—N-(3-fluoro-4-(trimethylsilyl)phenyl)-2-(4-(methoxymethyl)phenyl)-2-(((4-oxopyridin-1(4H)-yl)acetyl)amino)acetamide], the inhibition at 1 µM on RORγt [1] amounted to 102%; on RORγt [2] it was 93.2%. In addition, the inhibition at 3 µM on RORγt [3] (Jurkat) came out at 96%.
Turning to `COCc1ccc([C@@H](NC(=O)CCCC(=O)O)C(=O)Nc2cc(F)c([Si](C)(C)C)c(F)c2)cc1` [Example 107, 5-(((1R)-2-((3,5-difluoro-4-(trimethylsilyl)phenyl)amino)-1-(4-(methoxymethyl)phenyl)-2-oxoethyl)amino)-5-oxopentanoic acid], the inhibition at 1 µM at RORγt [1] came out at 103%; on RORγt [2] it was 95.7%. The inhibition at 3 µM on RORγt [3] (Jurkat) worked out at 100%.
On the same counts, the results for `COCc1ccc([C@@H](NC(=O)c2cc(O)no2)C(=O)Nc2cc(F)c([Si](C)(C)C)c(F)c2)cc1` [Example 82, N-((1R)-2-((3,5-difluoro-4-(trimethylsilyl)phenyl)amino)-1-(4-(methoxymethyl)phenyl)-2-oxoethyl)-3-hydroxy-1,2-oxazole-5-carboxamide] are 103%, 96.8% and 97%.
On the same counts, the results for `COc1ccc(C(C(=O)Nc2cc(F)c([Si](C)(C)C)cc2F)N(C)C(=O)c2cc(O)no2)cc1` (stereo not drawn) [Example 21, N-(2-((2,5-difluoro-4-(trimethylsilyl)phenyl)amino)-1-(4-methoxyphenyl)-2-oxoethyl)-3-hydroxy-N-methyl-1,2-oxazole-5-carboxamide] are 101%, 93.1% and 98.3%.
On the same counts, the results for `COc1ccc(C(NC(=O)C2CNC(=O)C2)C(=O)Nc2cc(F)c([Si](C)(C)C)c(F)c2)cc1` (stereo not drawn) [Example 37, N-(2-((3,5-difluoro-4-(trimethylsilyl)phenyl)amino)-1-(4-methoxyphenyl)-2-oxoethyl)-5-oxopyrrolidine-3-carboxamide] are 101%, 93.6% and 98.5%.
For the compound `COCc1ccc([C@@H](NC(=O)[C@H]2CNC(=O)C2)C(=O)Nc2cc(F)c([Si](C)(C)C)cc2F)cc1` [Example 55, (3R)—N-((1R)-2-((2,5-difluoro-4-(trimethylsilyl)phenyl)amino)-1-(4-(methoxymethyl)phenyl)-2-oxoethyl)-5-oxopyrrolidine-3-carboxamide], the inhibition at 1 µM on RORγt [1] stood at 102%; at RORγt [2], 95.8%. In addition, on RORγt [3] (Jurkat), the inhibition at 3 µM came out at 98.6%.
With `COCc1ccc([C@@H](NC(=O)[C@H]2CNC(=O)C2)C(=O)Nc2cc(F)c(C(C)(C)C)c(F)c2)cc1` [Example 113, (3R)—N-((1R)-2-((4-tert-butyl-3,5-difluorophenyl)amino)-1-(4-(methoxymethyl)phenyl)-2-oxoethyl)-5-oxopyrrolidine-3-carboxamide], the inhibition at 1 µM turned out to be 102% at RORγt [1] and 83.9% at RORγt [2]. In addition, the inhibition at 3 µM on RORγt [3] (setting [4]) worked out at 99.7%.
For the compound `COCc1ccc(C(NC(=O)Cn2cnccc2=O)C(=O)Nc2ccc([Si](C)(C)C)c(F)c2)cc1` (stereo not drawn) [Example 36, N-(3-fluoro-4-(trimethylsilyl)phenyl)-2-(4-(methoxymethyl)phenyl)-2-(((6-oxopyrimidin-1(6H)-yl)acetyl)amino)acetamide], the inhibition at 1 µM on RORγt [1] came out at 96.2%; on RORγt [2], 98.2%. Moreover, the inhibition at 3 µM at RORγt [3] (Jurkat) was found to be 99.8%.
The corresponding values for `COCc1ccc([C@@H](NC(=O)Cn2cnccc2=O)C(=O)Nc2ccc([Si](C)(C)C)c(F)c2)cc1` [Example 53, (2R)—N-(3-fluoro-4-(trimethylsilyl)phenyl)-2-(4-(methoxymethyl)phenyl)-2-(((6-oxopyrimidin-1(6H)-yl)acetyl)amino)acetamide] are 102%, 97.8% and 98.4%.
Regarding `C[Si](C)(C)c1ccc(NC(=O)C(NC(=O)c2cc(O)no2)C2CCC(F)(F)CC2)cc1F` (stereo not drawn) [Example 4, N-(1-(4,4-difluorocyclohexyl)-2-((3-fluoro-4-(trimethylsilyl)phenyl)amino)-2-oxoethyl)-3-hydroxy-1,2-oxazole-5-carboxamide], the results for the inhibition at 1 µM on RORγt [1] and on RORγt [2] were 100% and 78.8%, respectively. At RORγt [3] (Jurkat), the inhibition at 3 µM is 97%.
On to `COCc1ccc([C@@H](NC(=O)CCC(F)F)C(=O)Nc2ccc([Si](C)(C)C)c(F)c2)cc1` [Example 92, 4,4-difluoro-N-((1R)-2-((3-fluoro-4-(trimethylsilyl)phenyl)amino)-1-(4-(methoxymethyl)phenyl)-2-oxoethyl)butanamide], for which the figures for the inhibition at 1 µM at RORγt [1] and on RORγt [2] were 102% and 92.8%, respectively. In addition, the inhibition at 3 µM at RORγt [3] (Jurkat) amounted to 98.8%.
`CCNC(=O)N[C@@H](C(=O)Nc1ccc([Si](C)(C)C)c(F)c1)c1ccc(COC)cc1` [Example 90, (2R)-2-((ethylcarbamoyl)amino)-N-(3-fluoro-4-(trimethylsilyl)phenyl)-2-(4-(methoxymethyl)phenyl)acetamide]: the inhibition at 1 µM on RORγt [1] came to 102%; on RORγt [2] it was 96%. For the same compound, the inhibition at 3 µM on RORγt [3] (Jurkat) is 101%.
The corresponding values for `C[Si](C)(C)c1c(F)cc(NC(=O)C(NC(=O)Cn2cnccc2=O)C2CCOCC2)cc1F` (stereo not drawn) [Example 1, N-(3,5-difluoro-4-(trimethylsilyl)phenyl)-2-(((6-oxopyrimidin-1(6H)-yl)acetyl)amino)-2-(tetrahydro-2H-pyran-4-yl)acetamide] are 100%, 72.7% and 97.3%.
As to `CC(C)(C)c1ccc(NC(=O)[C@H](NC(=O)C(O)C(F)(F)F)C2CCOCC2)cc1Cl` (single isomer, unassigned) [Example 11], the values for the inhibition at 1 µM at RORγt [1] and at RORγt [2] were 102% and 32%, respectively. For the same compound, the inhibition at 3 µM on RORγt [3] (setting [4]) came out at 97.5%.
On to `COCc1ccc([C@@H](NC(=O)[C@@H]2CNC(=O)C2)C(=O)Nc2ccc([Si](C)(C)C)c(F)c2)cc1` [Example 49, (3S)—N-((1R)-2-((3-fluoro-4-(trimethylsilyl)phenyl)amino)-1-(4-(methoxymethyl)phenyl)-2-oxoethyl)-5-oxopyrrolidine-3-carboxamide], for which the inhibition at 1 µM on RORγt [1] was found to be 101%; at RORγt [2], 96.9%. Further, the inhibition at 3 µM at RORγt [3] (Jurkat) was 98.4%.
Take `COCc1ccc([C@@H](NC(=O)N2CC[C@@H](F)C2)C(=O)Nc2ccc([Si](C)(C)C)c(F)c2)cc1` [Example 95, (3R)-3-fluoro-N-((1R)-2-((3-fluoro-4-(trimethylsilyl)phenyl)amino)-1-(4-(methoxymethyl)phenyl)-2-oxoethyl)pyrrolidine-1-carboxamide]: the inhibition at 1 µM at RORγt [1] came out at 99.3%; on RORγt [2], 93.8%. For the same compound, the inhibition at 3 µM at RORγt [3] (Jurkat) was determined as 99.8%.
As for `COc1ccc([C@@H](NC(=O)[C@@H]2CNC(=O)C2)C(=O)Nc2ccc([Si](C)(C)C)c(F)c2)cc1` [Example 50, (3S)—N-((1R)-2-((3-fluoro-4-(trimethylsilyl)phenyl)amino)-1-(4-methoxyphenyl)-2-oxoethyl)-5-oxopyrrolidine-3-carboxamide], the inhibition at 1 µM is 102% at RORγt [1] and 91.5% at RORγt [2]. Moreover, at RORγt [3] (Jurkat), the inhibition at 3 µM was 98%.
Regarding `CC(C)(C)c1ccc(NC(=O)[C@H](NC(=O)[C@@H](O)C(F)(F)F)C2CCOCC2)cc1Cl` [Example 10, N-((1R)-2-((4-tert-butyl-3-chlorophenyl)amino)-2-oxo-1-(tetrahydro-2H-pyran-4-yl)ethyl)-3,3,3-trifluoro-2-hydroxypropanamide], the results for the inhibition at 1 µM at RORγt [1] and on RORγt [2] were 102% and 2.04%, respectively. The inhibition at 3 µM on RORγt [3] (setting [4]) was determined as 95.3%.
`COCc1ccc([C@@H](NC(=O)Cc2nnc(C)o2)C(=O)Nc2cc(F)c([Si](C)(C)C)c(F)c2)cc1` [Example 74, (2R)—N-(3,5-difluoro-4-(trimethylsilyl)phenyl)-2-(4-(methoxymethyl)phenyl)-2-(((5-methyl-1,3,4-oxadiazol-2-yl)acetyl)amino)acetamide]: the inhibition at 1 µM worked out at 101% at RORγt [1] and 97.6% on RORγt [2]. In addition, on RORγt [3] (Jurkat), the inhibition at 3 µM was determined as 99.4%.
